This note sets out measurements from ChEMBL document CHEMBL1201862, “PubChem BioAssay data set” (2004).

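1) Cells in 96-well plates. 2) Compound, 48 h, 5 concentrations. 3) Linear interpolation between surrounding doses. 4) Unreached endpoint = highest concentration. At the GI50, growth is halved.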 Activity calls are given as the source filed them. Cut-off read from the data, not from the text of the source: active = GI50 up to about 1.1 µM and inactive = higher. A value given as a limit tells only on which side of the number the result lay.

Among the test systems are 786-0; CAKI-1; EKVX; HT-29; M14; NCI-H23; NCI-H522; OVCAR-8; SF-268; SK-MEL-2; SK-OV-3; SN12C; SW-620; UACC-62; SR.
What all share (assay): NCI anticancer screen, dose series, 48 h

`N#C/C(=C1\OC(=N)C(c2ccc(Cl)cc2Cl)C1=O)c1ccc(Cl)cc1Cl` (configuration not stated): the GI50 in the experiment with 786-0 was > 100 µM (inactive); in the experiment on CAKI-1, > 100 µM (inactive); in the experiment on EKVX it was 24.2 µM (inactive); in the experiment with HT-29 it was > 100 µM (inactive); in the experiment on M14 it was > 100 µM (inactive); in the experiment on NCI-H23, > 100 µM (inactive). Also, the GI50 with NCI-H522, in the experiment on OVCAR-8, in the experiment on SF-268, in the experiment on SK-MEL-2, in the experiment with SK-OV-3 and in the experiment with SN12C was > 100 µM (inactive) throughout. The GI50 in the experiment with SW-620 and in the experiment on UACC-62 was > 100 µM (inactive) in each case.
Consider `Cn1cnc([N+](=O)[O-])c1Sc1nc2cc(Cl)c(F)cc2[nH]1`, for which the GI50 was > 10 µM (inactive) in the experiment on 786-0; 2.58 µM (inactive) in the experiment on CAKI-1; 1.38 µM (inactive) in the experiment on EKVX; 14.9 µM (inactive) in the experiment with HT-29; 13.5 µM (inactive) in the experiment on M14; 11.5 µM (inactive) in the experiment on NCI-H23. Moreover, the GI50 was 3.75 µM (inactive) with OVCAR-8; 10.1 µM (inactive) with SF-268; 21.5 µM (inactive) with SK-OV-3; 14.1 µM (inactive) in the experiment with SN12C; 1.75 µM (inactive) in the experiment on SR; 5.73 µM (inactive) in the experiment on SW-620. Moreover, in the experiment on UACC-62, the GI50 is 14 µM (inactive).
As to `CC12CCC(=O)N1c1cccnc1N2` (configuration not stated), the GI50 in the experiment with 786-0, with CAKI-1, in the experiment with EKVX, in the experiment on HT-29, with M14 and in the experiment on NCI-H23 was > 100 µM (inactive) in each case. The GI50 with NCI-H522, with OVCAR-8, with SF-268, in the experiment with SK-MEL-2, in the experiment on SK-OV-3 and with SN12C was > 100 µM (inactive) each time. Further, the GI50 in the experiment with SW-620 and with UACC-62 was > 100 µM (inactive) throughout.
Consider `C[C@]12CC(C#N)C(=O)C(O)=C1CC[C@@H]1C2CC[C@@]2(C)C1CC[C@@H]2O` (some centres not stated), for which the GI50 in the experiment with 786-0 is 22.9 µM (inactive); with EKVX, 34.8 µM (inactive); in the experiment on HT-29 it was > 100 µM (inactive); with M14, 65.5 µM (inactive); in the experiment with NCI-H23 it was 35.6 µM (inactive); in the experiment with OVCAR-8, > 100 µM (inactive). Moreover, the GI50 in the experiment on SF-268 is 41.7 µM (inactive); with SK-MEL-2, 51.8 µM (inactive); in the experiment with SK-OV-3 it was 33.2 µM (inactive); in the experiment with SN12C, 60 µM (inactive); in the experiment with SW-620, > 100 µM (inactive); with UACC-62, 3.99 µM (inactive).
Turning to `COc1ccc(C2=NN(c3ccccc3)C[N+](c3ccc(C)cc3)=N2)cc1`, the GI50 is 43.6 µM (inactive) in the experiment with 786-0; 44.3 µM (inactive) with EKVX; 73.1 µM (inactive) in the experiment with HT-29; 41.3 µM (inactive) with NCI-H23; 12.7 µM (inactive) in the experiment with NCI-H522; 78.2 µM (inactive) in the experiment with OVCAR-8. Further, the GI50 was 70.6 µM (inactive) with SF-268, 66.5 µM (inactive) in the experiment on SN12C, 34 µM (inactive) in the experiment with SR and 25.6 µM (inactive) with SW-620.
Take `CC(=O)Nc1ccc(C(=O)NN2C(=O)C(Cl)C2c2ccccc2O)cc1` (configuration not stated): the GI50 in the experiment with 786-0 was 9.06 µM (inactive); in the experiment on CAKI-1 it was > 100 µM (inactive); with EKVX, 99.8 µM (inactive); with HT-29, 69 µM (inactive); in the experiment on M14, 23.8 µM (inactive); in the experiment with NCI-H23, 19.7 µM (inactive). Also, the GI50 in the experiment on NCI-H522 was 36.2 µM (inactive); in the experiment on OVCAR-8, 42.2 µM (inactive); in the experiment with SF-268, 84.7 µM (inactive); in the experiment on SK-MEL-2, 15.7 µM (inactive); in the experiment with SK-OV-3, 12.9 µM (inactive); in the experiment with SN12C, > 100 µM (inactive). The GI50 with SW-620 was > 100 µM (inactive); with UACC-62, 37.2 µM (inactive).
For `C=CCC(O)c1cc(OC)ccc1OC` (configuration not stated), the GI50 in the experiment on 786-0, with CAKI-1, with EKVX, with HT-29, with M14 and with NCI-H522 was > 100 µM (inactive) in each case. Further, the GI50 with OVCAR-8, in the experiment with SF-268, with SK-MEL-2, in the experiment on SK-OV-3, in the experiment with SN12C and in the experiment with SW-620 was > 100 µM (inactive) each time. Further, the GI50 in the experiment on UACC-62 is > 100 µM (inactive).
As for `COC1C(OC(=O)c2ccc(C)[nH]2)C(O)C(Oc2ccc3c(O)c(NC(=O)c4c[nH]c(C(=O)Nc5c(O)c6ccc(OC7OC(C)(C)C(OC)C(OC(=O)c8ccc(C)[nH]8)C7O)c(C)c6oc5=O)c4C)c(=O)oc3c2C)OC1(C)C` (configuration not stated), the GI50 was 2.1 µM (inactive) with 786-0; 2.75 µM (inactive) in the experiment with CAKI-1; 3.82 µM (inactive) with EKVX; 3.9 µM (inactive) in the experiment with HT-29; 1.24 µM (inactive) in the experiment with NCI-H23; 2.81 µM (inactive) in the experiment on OVCAR-8. Also, the GI50 in the experiment with SF-268 is 0.67 µM (active); in the experiment with SK-MEL-2, 2.28 µM (inactive); in the experiment with SK-OV-3, 2.15 µM (inactive); in the experiment on SN12C, 1.54 µM (inactive); with SW-620, 4.34 µM (inactive); in the experiment on UACC-62, 0.724 µM (active).
On to `CCOC(=O)C(C(=O)OCC)S(C)(=O)=O`, for which the GI50 in the experiment with 786-0, in the experiment on EKVX, with HT-29, with M14, in the experiment with NCI-H23 and in the experiment on NCI-H522 was > 100 µM (inactive) throughout. Besides, the GI50 in the experiment on OVCAR-8, with SK-MEL-2, in the experiment on SK-OV-3, in the experiment on SN12C, in the experiment with SR and in the experiment with SW-620 was > 100 µM (inactive) each time. Also, the GI50 with UACC-62 is > 100 µM (inactive).
Consider `O=C1c2ccccc2C(=O)C2C3c4ccccc4C(c4ccccc43)C12` (configuration not stated), for which the GI50 with 786-0 was 5.45 µM (inactive); in the experiment with EKVX, 14.7 µM (inactive); in the experiment on HT-29, 21.1 µM (inactive); with M14, 56.4 µM (inactive); with NCI-H23, 41.7 µM (inactive); in the experiment with NCI-H522, 31.3 µM (inactive). The GI50 was 12.6 µM (inactive) in the experiment on OVCAR-8; 13.4 µM (inactive) in the experiment on SF-268; 24.9 µM (inactive) in the experiment on SK-OV-3; 23.9 µM (inactive) with SN12C; 14.4 µM (inactive) in the experiment on SR; > 100 µM (inactive) in the experiment with SW-620. Moreover, the GI50 in the experiment on UACC-62 was 33 µM (inactive).
As to `CC(=O)O[C@H]1CCC2[C@@H]3CCC4c5nonc5CC[C@]4(C)C3CC[C@@]21C` (some centres not stated), the GI50 in the experiment on 786-0, in the experiment with CAKI-1, in the experiment on EKVX, in the experiment with HT-29, in the experiment on M14 and with NCI-H23 was > 10 µM (inactive) each time. The GI50 in the experiment on NCI-H522, in the experiment with OVCAR-8, in the experiment on SF-268, in the experiment with SK-MEL-2, in the experiment with SK-OV-3 and in the experiment with SN12C was > 10 µM (inactive) in each case. For the same compound, the GI50 with SW-620 and in the experiment on UACC-62 was > 10 µM (inactive) in each case.
